Results on ten molecules are retold here after PubChem BioAssay (NCI).

Assay in all cases: inhibition of tumour cell growth, NCI panel, 48 h
For assay [1], the system named is IGROV1 ovarian.
The subject of assay [2] is SNB-75 CNS.
Assay [3] concerns PC-3 prostate.
Assay [4] concerns U251 CNS.
The test system of assay [5] is HL-60(TB) leukemia.
For assay [6], the system named is A549 NSCLC.
The subject of assay [7] is SN12C renal.
The subject of assay [8] is OVCAR-4 ovarian.
In assay [9] the test system is HT29 colon.
Assay [10] concerns NCI-H23 lung.

Several values for one entry are separate records, joined by “and”; a condition that tells them apart may be missing. Equal values may be shown once.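 96-well plates; 48 h exposure; 5 concentrations. Endpoints by linear interpolation between flanking doses. Not reached: highest tested concentration assigned. GI50 marks 50% less growth. At the TGI there is no net growth.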

`OCCN(CCO)N=Nc1ccc(-c2nc3ccccc3[nH]2)cc1`: the GI50 in [1] is 87.4 µM; in assay [2], 28.9 µM; in assay [3], 39.4 µM; in assay [4], 17.6 µM; in [5], 10.8 µM; in [6], 44.9 µM. In addition, the GI50 in assay [7] is 85.5 µM; in [8] it was 15.9 µM. The TGI in [1] is above 100 µM; in assay [2], above 100 µM; in [3], above 100 µM; in [4] it was 37.4 µM; in assay [5] it was 32.1 µM; in [6], above 100 µM. Also, the TGI is above 100 µM in assay [7] and 36.1 µM in [8].

Regarding `CCN1C(=O)C/C(=C\C(C)=O)Nc2ccccc21`, the TGI was above 100 µM in [1]; above 100 µM in assay [9]; above 67.1 µM in assay [2]; above 100 µM in [3]; above 100 µM in [4]; above 100 µM in assay [5]. Further, the TGI in assay [6], in assay [8] and in [10] was above 100 µM throughout. Besides, the GI50 in assay [3] and in [5] was above 100 µM in each case.

Turning to `COc1ccc(-c2ccc(C3CC(c4ccc(O)cc4)=NN3)o2)c([N+](=O)[O-])c1` (stereo not drawn), the GI50 in assay [1] is 84.9 µM; in assay [9] it was 40.1 µM; in assay [3], 25.9 µM; in assay [4] it was 19 µM; in assay [5], 13 µM; in [6] it was 25.7 µM. For the same molecule, the GI50 in assay [7] is 30.8 µM; in assay [8], 50.2 µM; in assay [10], 42.5 µM. The TGI in assay [1] is above 100 µM; in [9], 97.6 µM; in assay [3] it was above 100 µM; in assay [4] it was above 100 µM; in assay [5], 38.8 µM; in [6] it was 84 µM. The TGI in [7] is above 100 µM; in assay [8], 96.6 µM; in assay [10] it was above 100 µM.

For `O=[N+]([O-])c1cnc(Sc2ccncn2)c([N+](=O)[O-])c1`, the GI50 in [1] is 16.7 µM; in assay [9], 9.75 µM; in assay [2], 14.4 µM; in [3], 15.1 µM; in assay [4], 29.4 µM; in assay [5], 23.1 µM. Besides, the GI50 in [6] was 32.6 µM; in assay [7], 16 µM; in assay [10], 14.3 µM. For the same molecule, the TGI is 31.4 µM in assay [1]; 31.8 µM in [9]; 27.7 µM in assay [2]; 29.2 µM in [3]; above 100 µM in assay [4]; 62.9 µM in assay [5]. Moreover, the TGI was above 100 µM in assay [6], 29.9 µM in assay [7] and 37.7 µM in [10].

For the molecule `Oc1ccc(C(c2ccccc2)(c2ccccc2)c2ccccc2)cc1`, the GI50 in assay [1] is 14.3 µM; in assay [3] it was 20.6 µM; in assay [4], 28.9 µM; in assay [6], 12.8 µM; in assay [7] it was 16.9 µM; in [8], 12.3 µM. In assay [10], the GI50 was 14 µM. For the same molecule, the TGI in assay [1] was 27.6 µM; in assay [3], 36.1 µM; in [4], above 100 µM; in assay [6] it was 29 µM; in assay [7], 31.6 µM; in assay [8] it was 25.2 µM. In [10], this molecule registered a TGI of 28.9 µM.

As to `COc1ccc(C(=O)/C=C/c2ccc(O)c(O)c2F)c(OC)c1`, the GI50 in assay [1] is 12.8 µM; in [9], 4.03 µM; in assay [2] it was 4.53 µM; in [3] it was 6.18 µM; in assay [4], 4.12 µM; in [6], 8.62 µM. Further, the GI50 in [7] is 2.42 µM; in [8], 9.3 µM; in assay [10], 5.27 µM. In addition, the TGI was 75 µM and > 100 µM in assay [1]; 23.8 µM and 17.7 µM in assay [9]; 40.3 µM and 18.9 µM in assay [2]; 17.7 µM and 24 µM in assay [3]; 23.1 µM and 17.9 µM in [4]; 75 µM and > 100 µM in [6]. Also, the TGI in assay [7] was 18.6 µM and 11.9 µM; in assay [8] it was 75 µM and > 100 µM; in assay [10], 12.6 µM and 32.1 µM.

On to `CN(C)/[N+]([O-])=N/Oc1cc(Nc2cccc(C(=O)O)c2)c([N+](=O)[O-])cc1[N+](=O)[O-]`, for which the GI50 in [1] was 41.1 µM; in assay [9], above 100 µM; in assay [2] it was above 100 µM; in [3], above 100 µM; in assay [4], 35.3 µM; in [5], 52.2 µM. In addition, the GI50 was above 100 µM in assay [6], above 100 µM in assay [7] and 69.5 µM in assay [10]. Besides, the TGI in [1], in [9], in assay [2], in assay [3], in assay [4] and in [5] was above 100 µM each time. Further, the TGI in [6], in assay [7] and in assay [10] was above 100 µM in each case.

As for `S=CN1CCCCC1`, the TGI in assay [1], in assay [9], in [2], in [3], in assay [4] and in assay [5] was above 100 µM each time. For the same molecule, the TGI in assay [6], in assay [7] and in [10] was above 100 µM throughout.

Take `CCCCCCCCCCCCN1C(C)=CS/C1=C\C=C\c1scc(C)[n+]1CCCCCCCCCCCC`: the GI50 in [2] is 1.2 µM; in assay [3], 1.03 µM; in [7], 1.65 µM; in assay [8], 1.43 µM; in assay [10], 0.999 µM. Besides, the TGI was determined as 4.96 µM in assay [2]; 3.46 µM in assay [3]; 4.2 µM in [7]; 13.2 µM in assay [8]; 4.99 µM in assay [10].

Take `Oc1ccc2ccccc2c1C=NCCCN=Cc1c(O)ccc2ccccc12`: the GI50 is 28.1 µM in assay [1]; 19.7 µM in assay [9]; 21.6 µM in assay [3]; 3.8 µM in assay [4]; 24.1 µM in assay [5]; 32.1 µM in [6]. Moreover, the results for the GI50 in [8] and in assay [10] were 35.9 µM and 3.13 µM, respectively. The TGI is above 100 µM in assay [1]; 63.3 µM in [9]; above 100 µM in assay [3]; 15.2 µM in [4]; above 100 µM in assay [5]; above 100 µM in assay [6]. For the same molecule, the results for the TGI in [8] and in assay [10] were above 100 µM and 13 µM, respectively.
